Data as given in patent US20070128217A1 (priority 2003, published 2007).

Key:
[1] = tested on: rabbit serum obtained by immunizing a rabbit with the SARS-CoV strain Frankfurt 1; type: binding; parameters: Binding of a rabbit serum to linear peptides / Binding of a rabbit serum to looped peptides / Rabbit serum linear peptides / Rabbit serum looped peptides / Binding of a rabbit serum to linear peptides of protein N of SARS-CoV Urbani (Rabbit serum linear peptides) / Binding of a rabbit serum to looped/cyclic peptides of protein N of SARS-CoV Urbani (Rabbit serum looped peptides): unit not given here
[2] = tested on: antibodies in sera from SARS patients (sera 1a, 1b, 2, 6, 37, 62, London, SARS-yellow, SARS-green); type: binding, human; parameters: Binding of serum 6 to linear peptides of protein X1 of SARS-CoV Urbani / Binding of serum 37 to linear peptides of protein X1 of SARS-CoV Urbani / Binding of serum 6 to looped/cyclic peptide (PEPSCAN-ELISA) / Binding of serum 37 to looped/cyclic peptide (PEPSCAN-ELISA) / Binding of serum 37 to looped/cyclic peptides of protein X1 of SARS-CoV Urbani / Binding of serum 6 to linear peptides of protein X2 / Binding of serum 37 to linear peptides of protein X2 / Binding of serum 37 to looped/cyclic peptides of protein X2 of SARS-CoV Urbani / Binding of serum 6 to linear peptides of protein M of SARS-CoV Urbani / Binding of serum 37 to linear peptides of protein M of SARS-CoV Urbani / Binding of serum 6 to looped/cyclic peptides of protein M of SARS-CoV Urbani / Binding of serum 37 to looped/cyclic peptides of protein M of SARS-CoV Urbani / Binding of serum 6 to linear peptides of protein X3 of SARS-CoV Urbani / Binding of serum 37 to linear peptides of protein X3 of SARS-CoV Urbani / Binding of serum 37 to looped/cyclic peptides of protein X3 of SARS-CoV Urbani / Binding of serum 6 to linear peptides of protein X4 of SARS-CoV Urbani / Binding of serum 37 to linear peptides of protein X4 of SARS-CoV Urbani / Binding of serum 37 to looped/cyclic peptides of protein X4 of SARS-CoV Urbani / Binding of serum 6 to linear peptides of protein X5 of SARS-CoV Urbani / Binding of serum 37 to linear peptides of protein X5 of SARS-CoV Urbani / Binding of serum 37 to looped/cyclic peptides of protein X5 of SARS-CoV Urbani / Binding of serum 6 to linear peptides of protein N of SARS-CoV Urbani / Binding of serum 37 to linear peptides of protein N of SARS-CoV Urbani / Binding of serum 6 to linear peptide (PEPSCAN-ELISA) / Binding of serum 1a to looped/cyclic peptides of protein N of SARS-CoV Urbani / Binding of serum 1b to looped/cyclic peptides of protein N of SARS-CoV Urbani / Binding of serum 2 to looped/cyclic peptides of protein N of SARS-CoV Urbani / Binding of serum 6 to looped/cyclic peptides of protein N of SARS-CoV Urbani / Binding of serum 37 to looped/cyclic peptides of protein N of SARS-CoV Urbani / Binding of serum 62 to looped/cyclic peptides of protein N of SARS-CoV Urbani / Binding of serum London to looped/cyclic peptides of protein N of SARS-CoV Urbani / Binding of serum SARS-green to looped/cyclic peptides of protein N of SARS-CoV Urbani: unit not given here
[3] = tested on: control sera (pooled serum of ten healthy LUMC hospital workers; commercial negative donor pooled serum from the Dutch bloodbank); type: binding, human; parameters: Binding of Control serum LUMC to linear peptides / Binding of Control serum Blood-bank to linear peptides / Binding of Control serum LUMC to looped peptides / Binding of Control Serum Blood-Bank to Looped peptides / Binding of Control serum LUMC to linear peptides of the protein M of SARS-CoV Urbani / Binding of Control serum Blood-bank to linear peptides of the protein M of SARS-CoV Urbani / Binding of Control serum LUMC to looped peptides of the protein M of SARS-CoV Urbani / Binding of Control Serum Blood-Bank to Looped peptides of the protein M of SARS-CoV Urbani: unit not given here

Sequence: CIPYNSVTDTIVVTE
- Binding of a rabbit serum to linear peptides [1]: 0.1
- Binding of a rabbit serum to looped peptides [1]: 0.4
- Binding of serum 1a to linear peptides of protein X1 of SARS-CoV Urbani [2]: 0.7
- Binding of serum 1b to linear peptides of protein X1 of SARS-CoV Urbani [2]: 0.6
- Binding of serum 1b to looped/cyclic peptides of protein X1 of SARS-CoV Urbani [2]: 0.4
- Binding of serum 2 to linear peptides of protein X1 of SARS-CoV Urbani [2]: 0.5
- Binding of serum 2 to looped/cyclic peptides of protein X1 of SARS-CoV Urbani [2]: 0.5
- Binding of serum 6 to linear peptides of protein X1 of SARS-CoV Urbani [2]: 0.5
- Binding of serum 6 to looped/cyclic peptides of protein X1 of SARS-CoV Urbani [2]: 0.2
- Binding of serum 37 to linear peptides of protein X1 of SARS-CoV Urbani [2]: 0.7
- Binding of serum 37 to looped/cyclic peptides of protein X1 of SARS-CoV Urbani [2]: 0.6
- Binding of serum 62 to linear peptides of protein X1 of SARS-CoV Urbani [2]: 0.6
- Binding of serum 62 to looped/cyclic peptides of protein X1 of SARS-CoV Urbani [2]: 0.5
- Binding of serum London to linear peptides of protein X1 of SARS-CoV Urbani [2]: 0.3
- Binding of serum London to looped/cyclic peptides of protein X1 of SARS-CoV Urbani [2]: 0.2
- Binding of serum SARS-green to linear peptides of protein X1 of SARS-CoV Urbani [2]: 0.3
- Binding of serum SARS-green to looped/cyclic peptides of protein X1 of SARS-CoV Urbani [2]: 0.3
- Binding of serum SARS-yellow to linear peptides of protein X1 of SARS-CoV Urbani [2]: 0.5
- Binding of serum SARS-yellow to looped/cyclic peptides of protein X1 of SARS-CoV Urbani [2]: 0.4
- Binding of Control Serum Blood-Bank to Looped peptides [3]: 0.6
- Binding of Control serum Blood-bank to linear peptides [3]: 0.5
- Binding of Control serum LUMC to linear peptides [3]: 0.6
- Binding of Control serum LUMC to looped peptides [3]: 0.5

Sequence: CKHKKVSTNLCTHSF
- Binding of a rabbit serum to linear peptides [1]: 0.3
- Binding of a rabbit serum to looped peptides [1]: 0.5
- Binding of serum 1a to looped/cyclic peptides of protein X2 of SARS-CoV Urbani [2]: 0.7
- Binding of serum 1b to looped/cyclic peptides of protein X2 of SARS-CoV Urbani [2]: 0.7
- Binding of serum 2 to looped/cyclic peptides of protein X2 of SARS-CoV Urbani [2]: 0.4
- Binding of serum 6 to looped/cyclic peptides of protein X2 of SARS-CoV Urbani [2]: 0.3
- Binding of serum 37 to looped/cyclic peptides of protein X2 of SARS-CoV Urbani [2]: 0.6
- Binding of serum 62 to looped/cyclic peptides of protein X2 of SARS-CoV Urbani [2]: 0.5
- Binding of serum London to looped/cyclic peptides of protein X2 of SARS-CoV Urbani [2]: 0.3
- Binding of serum SARS-green to looped/cyclic peptides of protein X2 of SARS-CoV Urbani [2]: 0.4
- Binding of serum SARS-yellow to looped/cyclic peptides of protein X2 of SARS-CoV Urbani [2]: 0.9
- Recognition of the peptide by sera of SARS-CoV infected individuals, and form (linear, looped/cyclic) in which it is recognized [2]: recognized in linear form
- Binding of Control Serum Blood-Bank to Looped peptides [3]: 0.1
- Binding of Control serum Blood-bank to linear peptides [3]: 0.8
- Binding of Control serum LUMC to linear peptides [3]: 1.0
- Binding of Control serum LUMC to looped peptides [3]: 0.4

Sequence: CRIIMRCWLCWKCKS
- Binding of a rabbit serum to linear peptides [1]: 0.1
- Binding of a rabbit serum to looped peptides [1]: 0.7
- Binding of serum 1a to looped/cyclic peptide (PEPSCAN-ELISA) [2]: 0.5
- Binding of serum 1b to looped/cyclic peptide (PEPSCAN-ELISA) [2]: 0.4
- Binding of serum 2 to looped/cyclic peptide (PEPSCAN-ELISA) [2]: 0.5
- Binding of serum 6 to looped/cyclic peptide (PEPSCAN-ELISA) [2]: 0.5
- Binding of serum 37 to looped/cyclic peptide (PEPSCAN-ELISA) [2]: 0.6
- Binding of serum 62 to looped/cyclic peptide (PEPSCAN-ELISA) [2]: 0.6
- Binding of serum London to looped/cyclic peptide (PEPSCAN-ELISA) [2]: 0.4
- Binding of serum SARS-green to looped/cyclic peptide (PEPSCAN-ELISA) [2]: 0.2
- Binding of serum SARS-yellow to looped/cyclic peptide (PEPSCAN-ELISA) [2]: 0.4
- Recognition of the peptide by sera of SARS-CoV infected individuals, and form (linear, looped/cyclic) in which it is recognized [2]: recognized in linear form
- Binding of Control Serum Blood-Bank to Looped peptides [3]: 0.7
- Binding of Control serum Blood-bank to linear peptides [3]: 0.4
- Binding of Control serum LUMC to linear peptides [3]: 0.3
- Binding of Control serum LUMC to looped peptides [3]: 0.7
